From the supplement of paper PMC10307832 come the findings set out here.

Common to all, as to test: relative viability (nuclei count vs DMSO), 5 days (fraction); higher = more cells survive
Compound in experiment [1]: O=C(/C=C/c1cccnc1)NCCCCC1CCN(C(=O)c2ccccc2)CC1 [Daporinad] + C[C@@H](Oc1cc(-c2cnn(C3CCNCC3)c2)cnc1N)c1c(Cl)ccc(F)c1Cl [Crizotinib] (partner 1 µM)
In a few lines:
(§1)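 Lung cancer cell lines in 1536-well plates got either a single drug or a fixed anchor-drug dose together with five library-drug doses (not always all listed) in √10 steps, by pin tool, on the day after seeding. Nuclei were counted after 5 days, and relative viability is the treated-to-vehicle ratio of nuclei counts. Values are medians of duplicate plates.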

Compound in experiment [2]: COc1cc(Nc2ncc(F)c(Nc3ccc4c(n3)NC(=O)C(C)(C)O4)n2)cc(OC)c1OC [R406] + Cc1nc(Nc2ncc(C(=O)Nc3c(C)cccc3Cl)s2)cc(N2CCN(CCO)CC2)n1 [Dasatinib] (partner 0.075 µM)
In short, it runs like this:
as §1

Compound in experiment [3]: O=C(/C=C/c1cccnc1)NCCCCC1CCN(C(=O)c2ccccc2)CC1 [Daporinad] + O=C(c1cc(Cc2n[nH]c(=O)c3ccccc23)ccc1F)N1CCN(C(=O)C2CC2)CC1 [Olaparib] (partner 8 µM)
In short, it runs like this: as §1

Compound in experiment [4]: COc1cc(Nc2ncc(F)c(Nc3ccc4c(n3)NC(=O)C(C)(C)O4)n2)cc(OC)c1OC [R406] + CS(=O)(=O)CCNCc1ccc(-c2ccc3ncnc(Nc4ccc(OCc5cccc(F)c5)c(Cl)c4)c3c2)o1 [Lapatinib] (partner 2 µM)
In a few lines: as §1

As to NCI-H1993, the relative viability in experiment [1] (first compound 0.0005 µM) is 0.954; in experiment [1] (first compound 0.001581 µM) it was 0.941; in experiment [1] (first compound 0.005 µM), 1.01; in experiment [1] (first compound 0.01581 µM), 1.08; in experiment [2] (first compound 0.08 µM) it was 0.564; in experiment [2] (first compound 0.253 µM) it was 0.631. For the same cell line, the relative viability in experiment [2] (first compound 0.8 µM) was determined as 0.704; in experiment [2] (first compound 2.53 µM), 0.316; in experiment [2] (first compound 8 µM) it was 0.453; in experiment [3] (first compound 0.0005 µM), 0.899; in experiment [3] (first compound 0.001581 µM) it was 1.02; in experiment [3] (first compound 0.005 µM), 0.948. In addition, the relative viability stood at 1.05 in experiment [3] (first compound 0.01581 µM); 0.882 in experiment [4] (first compound 0.08 µM); 0.964 in experiment [4] (first compound 0.253 µM); 0.829 in experiment [4] (first compound 0.8 µM); 0.43 in experiment [4] (first compound 2.53 µM); 0.646 in experiment [4] (first compound 8 µM).

NCI-H1975: the relative viability in experiment [1] (first compound 0.0005 µM) was 0.996; in experiment [1] (first compound 0.001581 µM), 0.899; in experiment [1] (first compound 0.005 µM) it was 1.12; in experiment [1] (first compound 0.01581 µM), 0.881; in experiment [2] (first compound 0.08 µM) it was 0.377; in experiment [2] (first compound 0.253 µM), 0.479. In addition, the relative viability in experiment [2] (first compound 0.8 µM) was 0.379; in experiment [2] (first compound 2.53 µM), 0.174; in experiment [2] (first compound 8 µM), 0.112; in experiment [3] (first compound 0.0005 µM), 0.818; in experiment [3] (first compound 0.001581 µM), 0.764; in experiment [3] (first compound 0.005 µM), 0.728. For the same cell line, the relative viability is 0.611 in experiment [3] (first compound 0.01581 µM); 0.779 in experiment [4] (first compound 0.08 µM); 1.01 in experiment [4] (first compound 0.253 µM); 1.14 in experiment [4] (first compound 0.8 µM); 0.221 in experiment [4] (first compound 2.53 µM); 0.169 in experiment [4] (first compound 8 µM).
